The supplement of paper PMC6045584
± gives the standard deviation of the averaged measurements.

These test systems were tested with CC(=O)NCC(=O)N1[C@@H]2CC[C@H]1c1ccc(Nc3ncc(C(F)(F)F)c(NC4CCC4)n3)cc12 (assay: surviving fraction relative to DMSO-only wells; higher = less growth inhibition). Settings: 0.5 nM; exposure time: 5 days.
Outline: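 Continuous five-day exposure to inhibitors at 0.5, 1, 5, 10, 50, 100, 500 and 1000 nM started 24 hours after log-phase tumour cell lines were seeded at 250–500 cells per well in 384-well plates. Luminescence was read after 10 minutes at room temperature. Viability is given as surviving fraction, meaning CellTiter-Glo luminescence normalised to the median of DMSO-only wells.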

| Test System | surviving fraction |
| --- | --- |
| 22RV1 PROSTATE | 0.97 ± 0.066 |
| 93VU HEADNECK | 0.823 ± 0.059 |
| 143B BONE | 0.98 ± 0.021 |
| A549 LUNG | 0.952 ± 0.013 |
| ASKA SYNOVIAL | 0.973 ± 0.052 |
| BT20 BREAST | 1.03 ± 0.028 |
| BT549 BREAST | 1.11 ± 0.058 |
| CADOES1 SOFT TISSUE | 0.969 ± 0.1 |
| CAL51 BREAST | 1.01 ± 0.041 |
| CAL72 BONE | 1.06 ± 0.039 |
| CAL120 BREAST | 0.923 ± 0.051 |
| CASKI CERVIX | 0.928 ± 0.014 |
| CHLA90 AUTONOMIC GANGLIA | 0.951 ± 0.025 |
| CME SYNOVIAL | 1.13 ± 0.079 |
| COLO320DM LARGE INTESTINE | 1.1 ± 0.058 |
| DU4475 BREAST | 0.776 ± 0.12 |
| G292 BONE | 0.997 ± 0.043 |
| H23 LUNG | 0.971 ± 0.037 |
| HCC38 BREAST | 1.19 ± 0.12 |
| HCC78 LUNG | 0.885 ± 0.16 |
| HCC202 BREAST | 1.54 ± 0.18 |

| Test System | surviving fraction |
| --- | --- |
| HCC1806 BREAST | 0.995 ± 0.055 |
| HMLE3 BREAST | 0.923 ± 0.046 |
| HMT3552 BREAST | 1.16 |
| HOS BONE | 1.03 ± 0.013 |
| HOSMNG BONE | 0.997 ± 0.028 |
| HS57T BREAST | 0.907 ± 0.056 |
| HSSYII SYNOVIAL | 0.921 ± 0.035 |
| HT1080 SOFT TISSUE | 0.998 ± 0.035 |
| HU09 BONE | 1.05 ± 0.082 |
| HUO3N1 BONE | 1.01 ± 0.064 |
| JIMT1 BREAST | 0.996 ± 0.044 |
| LM7 BONE | 0.965 ± 0.032 |
| LNCAP PROSTATE | 0.859 ± 0.059 |
| MDAMB134 BREAST | 0.998 ± 0.048 |
| MDAMB157 BREAST | 0.954 ± 0.082 |
| MDAMB231 BREAST | 0.975 ± 0.018 |
| MDAMB361 BREAST | 0.96 ± 0.044 |
| MDAMB436 BREAST | 0.912 ± 0.039 |
| MDAMB468 BREAST | 0.977 ± 0.023 |
| MFM223 BREAST | 1.1 ± 0.065 |

Same assay, conditions: 1 nM; exposure time: 5 days

| Test System | surviving fraction |
| --- | --- |
| 22RV1 PROSTATE | 0.996 ± 0.047 |
| 93VU HEADNECK | 0.803 ± 0.035 |
| 143B BONE | 0.996 ± 0.013 |
| A549 LUNG | 0.93 ± 0.018 |
| ASKA SYNOVIAL | 0.908 ± 0.012 |
| BT20 BREAST | 0.968 ± 0.062 |
| BT549 BREAST | 1.09 ± 0.046 |
| CADOES1 SOFT TISSUE | 0.955 ± 0.099 |
| CAL51 BREAST | 0.9652 ± 0.005 |
| CAL72 BONE | 1.09 ± 0.051 |
| CAL120 BREAST | 0.9253 ± 0.0041 |
| CASKI CERVIX | 0.939 ± 0.042 |
| CHLA90 AUTONOMIC GANGLIA | 0.983 ± 0.046 |
| CME SYNOVIAL | 1.02 ± 0.17 |
| COLO320DM LARGE INTESTINE | 1.09 ± 0.077 |
| DU4475 BREAST | 0.802 ± 0.15 |
| G292 BONE | 0.968 ± 0.052 |
| H23 LUNG | 0.95 ± 0.015 |
| HCC38 BREAST | 1.19 ± 0.3 |
| HCC78 LUNG | 0.798 ± 0.052 |
| HCC202 BREAST | 1.09 ± 0.18 |

| Test System | surviving fraction |
| --- | --- |
| HCC1806 BREAST | 0.914 ± 0.11 |
| HMLE3 BREAST | 0.934 ± 0.029 |
| HMT3552 BREAST | 1.06 |
| HOS BONE | 1.013 ± 0.0087 |
| HOSMNG BONE | 1.01 ± 0.06 |
| HS57T BREAST | 0.894 ± 0.049 |
| HSSYII SYNOVIAL | 0.8998 ± 0.0079 |
| HT1080 SOFT TISSUE | 0.983 ± 0.011 |
| HU09 BONE | 1.01 ± 0.03 |
| HUO3N1 BONE | 0.997 ± 0.054 |
| JIMT1 BREAST | 1.01 ± 0.032 |
| LM7 BONE | 0.951 ± 0.058 |
| LNCAP PROSTATE | 0.872 ± 0.052 |
| MDAMB134 BREAST | 1.07 ± 0.37 |
| MDAMB157 BREAST | 0.854 ± 0.042 |
| MDAMB231 BREAST | 0.98 ± 0.016 |
| MDAMB361 BREAST | 0.939 ± 0.041 |
| MDAMB436 BREAST | 0.875 ± 0.053 |
| MDAMB468 BREAST | 1.04 ± 0.046 |
| MFM223 BREAST | 1.02 ± 0.035 |

Same assay, conditions: 5 nM; exposure time: 5 days

| Test System | surviving fraction |
| --- | --- |
| 22RV1 PROSTATE | 0.937 ± 0.029 |
| 93VU HEADNECK | 0.951 ± 0.029 |
| 143B BONE | 1.01 ± 0.026 |
| A549 LUNG | 0.906 ± 0.016 |
| ASKA SYNOVIAL | 0.972 ± 0.085 |
| BT20 BREAST | 1.02 ± 0.09 |
| BT549 BREAST | 1.04 ± 0.12 |
| CADOES1 SOFT TISSUE | 0.883 ± 0.094 |
| CAL51 BREAST | 0.988 ± 0.032 |
| CAL72 BONE | 1.12 ± 0.057 |
| CAL120 BREAST | 0.945 ± 0.029 |
| CASKI CERVIX | 0.968 ± 0.072 |
| CHLA90 AUTONOMIC GANGLIA | 0.96 ± 0.028 |
| CME SYNOVIAL | 0.992 ± 0.16 |
| COLO320DM LARGE INTESTINE | 0.979 ± 0.086 |
| DU4475 BREAST | 0.821 ± 0.16 |
| G292 BONE | 0.999 ± 0.025 |
| H23 LUNG | 0.936 ± 0.037 |
| HCC38 BREAST | 0.952 ± 0.096 |
| HCC78 LUNG | 0.935 ± 0.13 |
| HCC202 BREAST | 1.44 ± 0.13 |

| Test System | surviving fraction |
| --- | --- |
| HCC1806 BREAST | 1.14 ± 0.041 |
| HMLE3 BREAST | 1.01 ± 0.053 |
| HMT3552 BREAST | 1.01 |
| HOS BONE | 1.01 ± 0.025 |
| HOSMNG BONE | 0.962 ± 0.033 |
| HS57T BREAST | 0.955 ± 0.0027 |
| HSSYII SYNOVIAL | 0.886 ± 0.044 |
| HT1080 SOFT TISSUE | 0.964 ± 0.05 |
| HU09 BONE | 1.08 ± 0.075 |
| HUO3N1 BONE | 1.01 ± 0.021 |
| JIMT1 BREAST | 1 ± 0.036 |
| LM7 BONE | 1.04 ± 0.051 |
| LNCAP PROSTATE | 0.77 ± 0.08 |
| MDAMB134 BREAST | 1.01 ± 0.04 |
| MDAMB157 BREAST | 0.858 ± 0.081 |
| MDAMB231 BREAST | 0.974 ± 0.011 |
| MDAMB361 BREAST | 0.88 ± 0.038 |
| MDAMB436 BREAST | 0.908 ± 0.033 |
| MDAMB468 BREAST | 1.05 ± 0.026 |
| MFM223 BREAST | 1.05 ± 0.094 |

Same assay, conditions: 10 nM; exposure time: 5 days

| Test System | surviving fraction |
| --- | --- |
| 22RV1 PROSTATE | 0.95 ± 0.03 |
| 93VU HEADNECK | 1 ± 0.061 |
| 143B BONE | 0.966 ± 0.018 |
| A549 LUNG | 0.911 ± 0.014 |
| ASKA SYNOVIAL | 0.912 ± 0.084 |
| BT20 BREAST | 0.87 ± 0.051 |
| BT549 BREAST | 1.05 ± 0.073 |
| CADOES1 SOFT TISSUE | 0.849 ± 0.1 |
| CAL51 BREAST | 0.946 ± 0.013 |
| CAL72 BONE | 1.04 ± 0.011 |
| CAL120 BREAST | 0.9333 ± 0.0076 |
| CASKI CERVIX | 0.946 ± 0.067 |
| CHLA90 AUTONOMIC GANGLIA | 0.91 ± 0.039 |
| CME SYNOVIAL | 1.08 ± 0.066 |
| COLO320DM LARGE INTESTINE | 0.954 ± 0.035 |
| DU4475 BREAST | 0.783 ± 0.2 |
| G292 BONE | 0.949 ± 0.015 |
| H23 LUNG | 0.931 ± 0.029 |
| HCC38 BREAST | 1.26 ± 0.31 |
| HCC78 LUNG | 0.878 ± 0.28 |
| HCC202 BREAST | 1.5 ± 0.21 |

| Test System | surviving fraction |
| --- | --- |
| HCC1806 BREAST | 1.11 ± 0.031 |
| HMLE3 BREAST | 0.941 ± 0.092 |
| HMT3552 BREAST | 0.934 |
| HOS BONE | 1.006 ± 0.0098 |
| HOSMNG BONE | 0.989 ± 0.016 |
| HS57T BREAST | 0.94 ± 0.044 |
| HSSYII SYNOVIAL | 0.851 ± 0.05 |
| HT1080 SOFT TISSUE | 0.961 ± 0.031 |
| HU09 BONE | 1.11 ± 0.078 |
| HUO3N1 BONE | 1.02 ± 0.036 |
| JIMT1 BREAST | 0.97 ± 0.02 |
| LM7 BONE | 1.02 ± 0.011 |
| LNCAP PROSTATE | 0.893 ± 0.19 |
| MDAMB134 BREAST | 1.02 ± 0.11 |
| MDAMB157 BREAST | 0.895 ± 0.064 |
| MDAMB231 BREAST | 0.967 ± 0.015 |
| MDAMB361 BREAST | 0.873 ± 0.02 |
| MDAMB436 BREAST | 0.882 ± 0.12 |
| MDAMB468 BREAST | 0.987 ± 0.041 |
| MFM223 BREAST | 0.963 ± 0.077 |

Same assay, conditions: 50 nM; exposure time: 5 days

| Test System | surviving fraction |
| --- | --- |
| 22RV1 PROSTATE | 0.587 ± 0.021 |
